We go through 22 molecules from US11773078B2, “Furin inhibitors” (Glaxosmithkline Intellectual Property Development Limited, priority 2018, dated 2023).

Structures can show the parent of a compound that is named as a salt.

In experiment [1] the target is T1, Furin (108-574-Tev-Flag-His) enzyme (Homo sapiens, UniProt P09958).
T1 construct: Furin (108-574-Tev-Flag-His) enzyme was expressed and purified from CHO cells; TEV cleavage site (C); FLAG (C); His (C); made in house; host or cells: CHO cells
T1 sequence (P09958 108-574): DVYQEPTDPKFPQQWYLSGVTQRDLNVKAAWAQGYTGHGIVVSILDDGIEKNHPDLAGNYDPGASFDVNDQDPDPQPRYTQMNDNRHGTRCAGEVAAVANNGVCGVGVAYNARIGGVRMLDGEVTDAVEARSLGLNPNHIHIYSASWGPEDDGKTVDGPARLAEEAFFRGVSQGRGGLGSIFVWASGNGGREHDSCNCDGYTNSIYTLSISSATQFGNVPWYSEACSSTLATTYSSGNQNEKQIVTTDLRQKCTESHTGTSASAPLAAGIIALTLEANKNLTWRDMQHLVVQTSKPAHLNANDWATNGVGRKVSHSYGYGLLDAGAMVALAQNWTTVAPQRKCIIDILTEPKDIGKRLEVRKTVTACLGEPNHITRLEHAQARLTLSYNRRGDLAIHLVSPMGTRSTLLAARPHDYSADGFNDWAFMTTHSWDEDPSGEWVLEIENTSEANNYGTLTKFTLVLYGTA
The experiment can be described thus: Furin enzyme assay. It counts as biochemical. As to conditions: for IC50: read-out: furin enzyme pIC50 (converted). In short, it runs like this: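 Compounds ran as 11-point threefold dilutions (0.00017–10 μM final) against 40 pM furin, purified from CHO cells, for 2 h at room temperature. Buffer: 100 mM HEPES pH7.5 with 1 mM CaCl2 and 0.005% Triton X-100. Envision readout. Four-parameter curve gives pXC50.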

The target in experiment [2] is T2, furin (endogenous protease) in U20S cells (Homo sapiens, UniProt P09958).
T2 construct: the endogenous protease cleaves GFP; endogenous in cells; host or cells: U2OS cells transduced with a BacMam reporter
T2 sequence (P09958 108-794): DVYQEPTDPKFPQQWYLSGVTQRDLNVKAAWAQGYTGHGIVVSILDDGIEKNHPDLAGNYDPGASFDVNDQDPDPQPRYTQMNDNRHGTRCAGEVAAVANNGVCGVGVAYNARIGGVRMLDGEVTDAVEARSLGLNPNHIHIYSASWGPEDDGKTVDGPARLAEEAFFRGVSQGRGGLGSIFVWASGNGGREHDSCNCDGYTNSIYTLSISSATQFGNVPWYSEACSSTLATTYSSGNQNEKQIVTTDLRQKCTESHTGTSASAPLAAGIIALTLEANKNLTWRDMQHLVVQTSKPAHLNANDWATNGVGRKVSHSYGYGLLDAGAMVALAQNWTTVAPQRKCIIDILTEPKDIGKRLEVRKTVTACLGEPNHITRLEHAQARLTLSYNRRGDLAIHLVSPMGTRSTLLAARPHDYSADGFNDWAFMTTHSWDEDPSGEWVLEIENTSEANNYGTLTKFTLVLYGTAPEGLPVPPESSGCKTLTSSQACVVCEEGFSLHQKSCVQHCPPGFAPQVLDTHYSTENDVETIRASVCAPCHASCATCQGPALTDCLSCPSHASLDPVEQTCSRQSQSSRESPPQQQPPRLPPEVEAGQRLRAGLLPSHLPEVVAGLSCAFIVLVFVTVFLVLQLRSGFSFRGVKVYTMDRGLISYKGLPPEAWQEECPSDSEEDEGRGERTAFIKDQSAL
The experiment can be described thus: Furin cell-based assay (image-based, Golgi-targeted GFP with BMP10 furin/PCSK cleavage site).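 Further: Read-out is mean GFP fluorescence of Golgi puncta per cell by high-content imaging, retained when furin inhibited, over an eleven-point 0.00017–10 µM series, four-parameter fit.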 The settings on record: 24-hour incubation, read-out: furin golgi cell pXC50 (converted).

With `CNC(=O)NCC1CCN(Cc2cc(Oc3ccc(N4CCN(CCC(C)S(C)(=O)=O)CC4)nc3)nc(-c3cc(Cl)cc(Cl)c3)c2)CC1` (centres unmarked) [Example 219, 1-((1-((2-(3,5-dichlorophenyl)-6-((6-(4-(3-(methylsulfonyl)butyl)piperazin-1-yl)pyridin-3-yl)oxy)pyridin-4-yl)methyl)piperidin-4-yl)methyl)-3-methylurea], the “furin enzyme pIC50” value in experiment [1] was 9.8. The EC50 in experiment [2] is 0.398 nM.
For `CNC(=O)OCCN1CCN(c2ncc(Oc3cc(CN4CCC(CC(=O)O)CC4)cc(-c4cc(Cl)cc(Cl)c4)n3)cn2)CC1` [Example 241, 2-(1-((2-(3,5-Dichlorophenyl)-6-((2-(4-(2-((methylcarbamoyl)oxy)ethyl)piperazin-1-yl)pyrimidin-5-yl)oxy)pyridin-4-yl)methyl)piperidin-4-yl)acetic acid] the same measures were 8.6 and 63.1 nM.
Consider `Cc1nc(N2CCN(C)CC2)ncc1Oc1cc(CN2CCC(CC(=O)O)CC2)cc(-c2cc(Cl)cc(Cl)c2)n1` [Example 148, 2-(1-((2-(3,5-dichlorophenyl)-6-((4-methyl-2-(4-methylpiperazin-1-yl)pyrimidin-5-yl)oxy)pyridin-4-yl)methyl)piperidin-4-yl)acetic acid], for which the “furin enzyme pIC50” value in experiment [1] stood at 8.3. Moreover, the EC50 in experiment [2] was 63.1 nM.
For the molecule `CC(=O)NCC1CCN(Cc2cc(Oc3ccc(N4CCN(CCC(=O)O)CC4)nc3)nc(-c3cc(F)cc(Br)c3)c2)CC1` [Example 116, 3-(4-(5-((4-((4-(Acetamidomethyl)piperidin-1-yl)methyl)-6-(3-bromo-5-fluorophenyl)pyridin-2-yl)oxy)pyridin-2-yl)piperazin-1-yl)propanoic acid], the “furin enzyme pIC50” value in experiment [1] is on record as 10.4. Besides, the EC50 in experiment [2] was 200 nM.
On to `CC(=O)NCC1CCN(Cc2cc(Oc3cnc(N4CCN(C(C)CCS(C)(=O)=O)CC4)nc3)nc(-c3cc(Cl)cc(Cl)c3)c2)CC1` (centres unmarked) [Example 19, N-((1-((2-(3,5-dichlorophenyl)-6-((2-(4-(4-(methylsulfonyl)butan-2-yl)piperazin-1-yl)pyrimidin-5-yl)oxy)pyridin-4-yl)methyl)piperidin-4-yl)methyl)acetamide], for which the “furin enzyme pIC50” value in experiment [1] is 10.2. In addition, the EC50 in experiment [2] is 0.398 nM.
`CC(CCO)N1CCN(c2ncc(Oc3cc(CN4CCC(CC(=O)O)CC4)cc(-c4cc(Cl)cc(Cl)c4)n3)cn2)CC1` (centres unmarked) [Example 238, 2-(1-((2-(3,5-Dichlorophenyl)-6-((2-(4-(4-hydroxybutan-2-yl)piperazin-1-yl)pyrimidin-5-yl)oxy)pyridin-4-yl)methyl)piperidin-4-yl)acetic acid]: in experiment [1], the “furin enzyme pIC50” value was determined as 9.8. Moreover, the EC50 in experiment [2] is 10 nM.
For `COC(=O)NCC1CCN(Cc2cc(Oc3ccc(N4CCN(CCCS(C)(=O)=O)CC4)nc3)nc(-c3cc(Cl)cc(Cl)c3)c2)CC1` [Example 217, methyl ((1-((2-(3,5-dichlorophenyl)-6-((6-(4-(3-(methylsulfonyl)propyl)piperazin-1-yl)pyridin-3-yl)oxy)pyridin-4-yl)methyl)piperidin-4-yl)methyl)carbamate], the “furin enzyme pIC50” value in experiment [1] is recorded as 9.8. For the same molecule, the EC50 in experiment [2] was 5.01 nM.
For the molecule `CC(CCN1CCN(c2cnc(Oc3cc(CN4CCC(CCO)CC4)cc(-c4cc(Cl)cc(Cl)c4)n3)cn2)CC1)C(=O)O` (centres unmarked) [Example 341, 4-(4-(5-((6-(3,5-dichlorophenyl)-4-((4-(2-hydroxyethyl)piperidin-1-yl)methyl)pyridin-2-yl)oxy)pyrazin-2-yl)piperazin-1-yl)-2-methylbutanoic acid], in experiment [1], the “furin enzyme pIC50” value is recorded as 8.8. Moreover, the EC50 in experiment [2] was 10 nM.
The matching figures for `COCCN1CCN(c2ccc(Oc3cc(CN4CCC(CC(=O)O)CC4)cc(-c4cc(Cl)cc(Cl)c4)n3)cn2)CC1` [Example 244, 2-(1-((2-(3,5-dichlorophenyl)-6-((6-(4-(2-methoxyethyl)piperazin-1-yl)pyridin-3-yl)oxy)pyridin-4-yl)methyl)piperidin-4-yl)acetic acid]: 8.3 and 20 nM.
The matching figures for `CN1CCN(c2ncc(Oc3cc(CN4CCC(P(C)(C)=O)CC4)cc(-c4cc(Cl)cc(Cl)c4)n3)cn2)CC1` [Example 331, (1-((2-(3,5-Dichlorophenyl)-6-((2-(4-methylpiperazin-1-yl)pyrimidin-5-yl)oxy)pyridin-4-yl)methyl)piperidin-4-yl)dimethylphosphine oxide, 4 hydrochloride]: 7.8 and 20 nM.
`CC(=O)NCC1CCN(Cc2cc(Oc3cnc(N4CCN(CCS(N)(=O)=O)CC4)nc3)nc(-c3cc(Cl)cc(Cl)c3)c2)CC1` [Example 286, N-((1-((2-(3,5-dichlorophenyl)-6-((2-(4-(2-sulfamoylethyl)piperazin-1-yl)pyrimidin-5-yl)oxy)pyridin-4-yl)methyl)piperidin-4-yl)methyl)acetamide]: the “furin enzyme pIC50” value in experiment [1] came to 9.4. Moreover, the EC50 in experiment [2] is 7.94 nM.
As to `CC(CC(=O)O)C1CN(Cc2cc(Oc3cnc(N4CCN(C)CC4)nc3)nc(-c3cc(Cl)cc(Cl)c3)c2)C1` (centres unmarked) [Example 127, 3-(1-((2-(3,5-dichlorophenyl)-6-((2-(4-methylpiperazin-1-yl)pyrimidin-5-yl)oxy)pyridin-4-yl)methyl)azetidin-3-yl)butanoic acid], the “furin enzyme pIC50” value in experiment [1] is on record as 8.8. Also, the EC50 in experiment [2] is 501 nM.
In the case of `COC(=O)NCC1CCN(Cc2cc(Oc3cnc(N4CC5CCC(C4)N5CCC(=O)O)nc3)nc(-c3cc(Cl)cc(Cl)c3)c2)CC1` [Example 56, 3-(3-(5-((6-(3,5-dichlorophenyl)-4-((4-(((methoxycarbonyl)amino)methyl)piperidin-1-yl)methyl)pyridin-2-yl)oxy)pyrimidin-2-yl)-3,8-diazabicyclo[3.2.1]octan-8-yl)propanoic acid], in experiment [1], the IC50 was 0.0316 nM. In experiment [2], the EC50 is 5.01 nM.
Consider `CC(=O)NCC1CCN(Cc2cc(Oc3ccc(N4CCN([C@H]5C[C@@H](NS(C)(=O)=O)C5)CC4)nc3)nc(-c3cc(Cl)cc(Cl)c3)c2)CC1` [Example 27, N-((1-((2-(3,5-Dichlorophenyl)-6-((6-(4-((cis)-3-(methylsulfonamido)cyclobutyl)piperazin-1-yl)pyridin-3-yl)oxy)pyridin-4-yl)methyl)piperidin-4-yl)methyl)acetamide], for which the “furin enzyme pIC50” value in experiment [1] was 9.6. Besides, in experiment [2], the EC50 is 3.16 nM.
For the molecule `CN1CCN(c2ncc(Oc3cc(CN4CCO[C@H](CO)CC4)cc(-c4cc(Cl)cc(Cl)c4)n3)cn2)CC1` [Example 330, (S)-(4-((2-(3,5-Dichlorophenyl)-6-((2-(4-methylpiperazin-1-yl)pyrimidin-5-yl)oxy)pyridin-4-yl)methyl)-1,4-oxazepan-7-yl)methanol, 4 hydrochloride], in experiment [1], the “furin enzyme pIC50” value came out at 8. In addition, the EC50 in experiment [2] was 10 nM.
The matching figures for `CC(=O)NCC1CCN(Cc2cc(Oc3cnc(N4CCN(CCC(N)=O)CC4)nc3)nc(-c3cc(Cl)cc(Cl)c3)c2)CC1` [Example 88, 3-(4-(5-((4-((4-(Acetamidomethyl)piperidin-1-yl)methyl)-6-(3,5-dichlorophenyl)pyridin-2-yl)oxy)pyrimidin-2-yl)piperazin-1-yl)propanamide]: 9.1 and 5.01 nM.
For the molecule `COC(=O)NCC1CCN(Cc2cc(Oc3cnc(N4CCN(C)CC4)nc3)nc(-c3cc(Cl)cc(Cl)c3)c2)CC1` [Example 63, Methyl ((1-1(2-(3,5-dichlorophenyl)-6-((2-(4-methylpiperazin-1-yl)pyrimidin-5-yl)oxy)pyridin-4-yl)methyl)piperidin-4-yl)methyl)carbamate, 4 hydrochloride], in experiment [1], the “furin enzyme pIC50” value is reported as 10.8. Moreover, the EC50 in experiment [2] was 7.94 nM.
Take `C[C@]1(O)C[C@@H](N2CCN(c3ncc(Oc4cc(CN5CCC(CC(=O)O)CC5)cc(-c5cc(Cl)cc(Cl)c5)n4)cn3)CC2)C1` [Example 24, 2-(1-((2-(3,5-dichlorophenyl)-6-((2-(4-((1s,3s)-3-hydroxy-3-methylcyclobutyl)piperazin-1-yl)pyrimidin-5-yl)oxy)pyridin-4-yl)methyl)piperidin-4-yl)acetic acid]: the “furin enzyme pIC50” value in experiment [1] was 8.6. Further, the EC50 in experiment [2] was 12.6 nM.
For `CNC(=O)OCC1CCN(Cc2cc(Oc3cnc(N4CCNCC4)nc3)nc(-c3cc(Cl)cc(Cl)c3)c2)CC1` [Example 73, (1-((2-(3,5-Dichlorophenyl)-6-((2-(piperazin-1-yl)pyrimidin-5-yl)oxy)pyridin-4-yl)methyl)piperidin-4-yl)methyl methylcarbamate] the same measures were 8.9 and 6.31 nM.
On to `CNC(=O)NCC1(O)CCN(Cc2cc(Oc3cnc(N4CCN(CCC(N)=O)CC4)nc3)nc(-c3cc(Cl)cc(Cl)c3)c2)CC1` [Example 265, 3-(4-(5-((6-(3,5-dichlorophenyl)-4-((4-hydroxy-4-((3-methylureido)methyl)piperidin-1-yl)methyl)pyridin-2-yl)oxy)pyrimidin-2-yl)piperazin-1-yl)propanamide], for which the “furin enzyme pIC50” value in experiment [1] turned out to be 9.4. Also, in experiment [2], the EC50 is 7.94 nM.
Take `CNC(=O)OCC1CCN(Cc2cc(Oc3cnc(N4CCN(C(C)CCC(=O)O)CC4)nc3)nc(-c3cc(Cl)cc(Cl)c3)c2)CC1` (centres unmarked) [Example 208]: the IC50 in experiment [1] was 0.0126 nM. The EC50 in experiment [2] was 10 nM.
On to `CC(=O)NCC1CCN(Cc2cc(Oc3cnc(N4CCN(C(C)CCS(C)(=O)=O)CC4)nc3)nc(-c3cc(F)cc(Cl)c3)c2)CC1` (centres unmarked) [Example 372, N-((1-((2-(3-Chloro-5-fluorophenyl)-6-((2-(4-(4-(methylsulfonyl)butan-2-yl)piperazin-1-yl)pyrimidin-5-yl)oxy)pyridin-4-yl)methyl)piperidin-4-yl)methyl)acetamide], for which, in experiment [1], the “furin enzyme pIC50” value was found to be 8.8. For the same molecule, the EC50 in experiment [2] was 3.98 nM.
